The source of these data is US8664380B2, “Heterocyclic compound and use thereof” (Takeda Pharmaceutical Company Limited, priority 2008, dated 2014).

Structures are written as SMILES. Counter-ions that a name gives are not always drawn.

In test [1] the target is T1, Human renin (Homo sapiens, UniProt P00797).
T1 sequence (P00797 67-406): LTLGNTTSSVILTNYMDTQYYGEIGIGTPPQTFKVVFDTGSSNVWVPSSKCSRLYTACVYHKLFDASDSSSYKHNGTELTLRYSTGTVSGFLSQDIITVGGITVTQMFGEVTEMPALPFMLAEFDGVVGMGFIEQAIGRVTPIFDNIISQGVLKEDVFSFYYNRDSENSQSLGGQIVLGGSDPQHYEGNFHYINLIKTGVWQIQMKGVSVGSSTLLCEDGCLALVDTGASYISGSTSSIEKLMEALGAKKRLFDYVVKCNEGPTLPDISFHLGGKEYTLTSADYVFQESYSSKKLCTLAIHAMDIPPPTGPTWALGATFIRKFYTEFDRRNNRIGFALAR
Briefly: Human renin inhibition; angiotensin I formed from angiotensinogen quantified by EIA. The following applies: for inhibition at 0.1 µM: read-out: Human renin inhibitory activity, inhibitory activity (%) at 0.1 μM.
Description: As a substrate for renin activity measurement, the angiotensinogen mentioned in (5) above was used. 1 μl each of the test compound (containing 100% DMSO) was added to each well of a 384-well plate (ABgene). Renin was diluted with a buffer solution for reaction (20 mM sodium phosphate (pH 7.4)) to a concentration of 57 pM, and 14 μl each of the dilution was added to each well. The dilution was left to stand at 37° C. for 10 min, and then 5 μl of each of a 6 μM solution of substrate angiotensinogen was added to each well to initiate the reaction. […] The amount of angiotensin I produced by an enzyme reaction was quantified by Enzyme Immuno Assay (EIA) described below.
Anti-angiotensin I antibody (Peninsula Laboratories Inc.) diluted 5,000-fold with PBS was added to each well of a 384 well black plate (Nalge Nunc International Co., Ltd.) by 25 μl, and left standing overnight at 4° C. to immobilize the antibody in the plate. The antibody solution was removed, PBS solution (100 μl) containing 1% BSA was added to each well, and the mixture was left standing at room temperature for 2 hr for blocking. The blocking solution was removed, and each well was washed 5 times with 100 μl of 0.05% Tween20-PBS. […] Then, a biotinated angiotensin I solution (AnaSpec, 15 μl) prepared to 1.6 nM with a buffer [20 mM tris-hydrochloric acid (pH 7.4), 150 mM sodium chloride, 0.01% BSA, 0.05% Tween20] was added to each well, mixed with a plate mixer and left standing at room temperature for 1 hr. The solutions were removed from each well, and each well was washed 5 times with 100 μl of 0.05% Tween20-PBS. Horseradish peroxydase Streptavidin (PIERCE Biotechnology inc., 25 μl) diluted to 100 ng/ml with a buffer [20 mM tris-hydrochloric acid (pH 7.4), 150 mM sodium chloride, 0.1% BSA, 0.05% Tween 20] was added to each well and the mixture was left standing at room temperature for 30 min. The solutions were removed from each well, and each well was washed 5 times with 100 μl of 0.05% Tween20-PBS. SuperSignal ELISA femto Maximum Sensitivity Substrate (PIERCE Biotechnology Inc.) was added by 25 μl and luminescence intensity was measured by EnVision (Perkin Elmer Inc.). An analytical curve was drawn from the luminescence intensity of wells containing an angiotensin I standard solution, and the amount of angiotensin I produced by an enzyme reaction was calculated and used as an index of renin activity.

In test [2] the test system is plasma renin activity. Briefly: Ex vivo plasma renin activity (PRA) test after oral administration. To be noted: Macaca fascicularis, po, 4 h, read-out: Macaca fascicularis plasma renin activity, PPA inhibitory activity (%, n = 3-7). It is filed as in vivo, Macaca fascicularis. The procedure: Male macaca fascicularis was used. […] PRA was calculated by the following formula.

With `COCCCCn1c(C(=O)N(CC(C)C)[C@@H]2CNC[C@H](C(=O)N3CCOCC3)C2)cc2ccccc21` [Example 3, 1-(4-methoxybutyl)-N-(2-methylpropyl)-N-[(3S,5R)-5-(morpholin-4-ylcarbonyl)piperidin-3-yl]-1H-indole-2-carboxamide hydrochloride], the inhibition at 0.1 µM in test [1] is 96%.

For the compound `COCCOCc1c(C(=O)N(CC(C)C)[C@@H]2CNC[C@H](C(=O)N3CCOCC3)C2)nc2ccccn12` [Example 4, 3-[(2-methoxyethoxy)methyl]-N-(2-methylpropyl)-N-[(3S,5R)-5-(morpholin-4-ylcarbonyl)piperidin-3-yl]imidazo[1,2-a]pyridine-2-carboxamide dihydrochloride], in test [1], the inhibition at 0.1 µM came out at 96%.

Regarding `COCCCCn1c(C(=O)N(CC(C)C)[C@@H]2CNC[C@H](C(=O)OCc3oc(=O)oc3C)C2)nc2ccccc21` [Example 7, (5-methyl-2-oxo-1,3-dioxol-4-yl)methyl (3R,5S)-5-[{[1-(4-methoxybutyl)-1H-benzimidazol-2-yl]carbonyl}(2-methylpropyl)amino]piperidine-3-carboxylate dihydrochloride], the inhibition at 1 mg/kg in test [2] was 93%.

For `COCCCCn1c(C(=O)N(CC(C)C)[C@@H]2CNC[C@H](C(=O)N3CCOCC3)C2)nc2ccccc21` [Example 10, 1-(4-methoxybutyl)-N-(2-methylpropyl)-N-[(3S,5R)-5-(morpholin-4-ylcarbonyl)piperidin-3-yl]-1H-benzimidazole-2-carboxamide dihydrochloride], the “Human renin inhibitory activity, inhibitory activity (%) at 0.1 μM” value in test [1] (0.1 μM test compound, human renin, substrate human angiotensinogen, 37° C. 30 min) worked out at 97%. Besides, in test [2], the inhibition at 1 mg/kg amounted to 72%.

Turning to `COCCCCn1c(C(=O)N(CC(C)C)[C@@H]2CNC[C@H](C(=O)N3CCOCC3)C2)nc2ccc(F)cc21` [Example 11, 6-fluoro-1-(4-methoxybutyl)-N-(2-methylpropyl)-N-[(3S,5R)-5-(morpholin-4-ylcarbonyl)piperidin-3-yl]-1H-benzimidazole-2-carboxamide dihydrochloride], in test [2], the inhibition at 1 mg/kg amounted to 89%.

Turning to `COCCCCn1c(C(=O)N(CC(C)C)[C@@H]2CNC[C@H](C(=O)N3CCOCC3)C2)nc2ccc(F)cc21` [Example 12, 6-fluoro-1-(4-methoxybutyl)-N-(2-methylpropyl)-N-[(3S,5R)-5-(morpholin-4-ylcarbonyl)piperidin-3-yl]-1H-benzimidazole-2-carboxamide dihydrochloride], in test [1], the inhibition at 0.1 µM came to 97%.

As to `COCCCCn1c(C(=O)N(CC(C)C)[C@@H]2CNC[C@H](C(=O)N3CCCC3)C2)nc2cc(F)ccc21` [Example 18, 5-fluoro-1-(4-methoxybutyl)-N-(2-methylpropyl)-N-[(3S,5R)-5-(pyrrolidin-1-ylcarbonyl)piperidin-3-yl]-1H-benzimidazole-2-carboxamide dihydrochloride], the inhibition at 1 mg/kg in test [2] is 89%.

Regarding `COCCCCn1c(C(=O)N(CC(C)C)[C@@H]2CNC[C@H](C(=O)N3CCCCC3)C2)nc2ccccc21` [Example 21, 1-(4-methoxybutyl)-N-(2-methylpropyl)-N-[(3S,5R)-5-(piperidin-1-ylcarbonyl)piperidin-3-yl]-1H-benzimidazole-2-carboxamide dihydrochloride], the inhibition at 1 mg/kg in test [2] came out at 85%.

For `COCCCCn1c(C(=O)N(CC(C)C)[C@@H]2CNC[C@H](C(N)=O)C2)nc2ccccc21` [Example 25, N-[(3S,5R)-5-carbamoylpiperidin-3-yl]-1-(4-methoxybutyl)-N-(2-methylpropyl)-1H-benzimidazole-2-carboxamide dihydrochloride], the inhibition at 0.1 µM in test [1] stood at 98%. In addition, the inhibition at 1 mg/kg in test [2] came out at 79%.

As for `COCCCCn1c(C(=O)N(CC(C)C)[C@@H]2CNC[C@H](C(=O)O)C2)nc2ccccc21` [Example 33, (3R,5S)-5-[{[1-(4-methoxybutyl)-1H-benzimidazol-2-yl]carbonyl}(2-methylpropyl)amino]piperidine-3-carboxylic acid dihydrochloride], in test [2], the inhibition at 1 mg/kg is 77%.

In the case of `COCCCCn1c(C(=O)N(CC(C)C)[C@@H]2CNC[C@H](C(C)(C)O)C2)nc2ccccc21` [Example 38, N-[(3S,5R)-5-(1-hydroxy-1-methylethyl)piperidin-3-yl]-1-(4-methoxybutyl)-N-(2-methylpropyl)-1H-benzimidazole-2-carboxamide dihydrochloride], in test [1], the inhibition at 0.1 µM was determined as 98%.

For the compound `COCCCCn1c(C(=O)N(CC(C)C)[C@@H]2CNC[C@H](CO)C2)nc2ccccc21` [Example 40, N-[(3S,5R)-5-(hydroxymethyl)piperidin-3-yl]-1-(4-methoxybutyl)-N-(2-methylpropyl)-1H-benzimidazole-2-carboxamide dihydrochloride], in test [1], the inhibition at 0.1 µM is 97%. The inhibition at 1 mg/kg in test [2] stood at 75%.

On to `COCCCCn1c(C(=O)N(CC(C)C)[C@@H]2CNC[C@H](C(C)O)C2)nc2ccccc21` (stereo partly drawn) [Example 42, N-[(3S,5R)-5-(1-hydroxyethyl)piperidin-3-yl]-1-(4-methoxybutyl)-N-(2-methylpropyl)-1H-benzimidazole-2-carboxamide dihydrochloride], for which, in test [2], the inhibition at 1 mg/kg amounted to 70%.

Take `COCCCCn1c(C(=O)N(CC(C)C)[C@@H]2CNC[C@H](C(O)COC)C2)nc2ccccc21` (stereo partly drawn) [Example 48, N-[(3S,5R)-5-(1-hydroxy-2-methoxyethyl)piperidin-3-yl]-1-(4-methoxybutyl)-N-(2-methylpropyl)-1H-benzimidazole-2-carboxamide dihydrochloride]: the inhibition at 0.1 µM in test [1] is 97%. Further, the inhibition at 1 mg/kg in test [2] was 78%.

With `COCCCCn1c(C(=O)N(CC(C)C)[C@@H]2CNC[C@H](C(=O)N3CCOCC3)C2)nc2ccccc21` [Example 49, 1-(4-methoxybutyl)-N-(2-methylpropyl)-N-[(3S,5R)-5-(morpholin-4-ylcarbonyl)piperidin-3-yl]-1H-benzimidazole-2-carboxamide methanesulfonate], in test [1], the inhibition at 0.1 µM was determined as 97%.

Turning to `COCCCCn1c(C(=O)N(CC(C)C)[C@@H]2CNC[C@H](C(=O)N3CCOCC3)C2)nc2ccc(OC)cc21` [Example 60, 6-methoxy-1-(4-methoxybutyl)-N-(2-methylpropyl)-N-{(3S,5R)-5-(morpholin-4-ylcarbonyl)piperidin-3-yl}-1H-benzimidazole-2-carboxamide dihydrochloride], the inhibition at 1 mg/kg in test [2] turned out to be 85%.

In the case of `COCCCCn1c(C(=O)N(CC(C)C)[C@@H]2CNC[C@H](C(=O)N3CCCC3)C2)nc2ccc(OC)cc21` [Example 62, 6-methoxy-1-(4-methoxybutyl)-N-(2-methylpropyl)-N-{(3S,5R)-5-(pyrrolidin-1-ylcarbonyl)piperidin-3-yl}-1H-benzimidazole-2-carboxamide dihydrochloride], the inhibition at 1 mg/kg in test [2] was determined as 75%.

Turning to `COCCCCn1c(C(=O)N(CC(C)C)[C@@H]2CNC[C@H]([C@@H](O)COC)C2)nc2ccccc21` [Example 73-1, N-{(3S,5R)-5-[(1R)-1-hydroxy-2-methoxyethyl]piperidin-3-yl}-1-(4-methoxybutyl)-N-(2-methylpropyl)-1H-benzimidazole-2-carboxamide dihydrochloride], the inhibition at 0.1 µM in test [1] is 96%. Besides, the inhibition at 1 mg/kg in test [2] was 77%.

For `COCCCCn1c(C(=O)N(CC(C)C)[C@@H]2CNC[C@H]([C@H](O)COC)C2)nc2ccccc21` [Example 73-2, N-{(3S,5R)-5-[(1S)-1-hydroxy-2-methoxyethyl]piperidin-3-yl}-1-(4-methoxybutyl)-N-(2-methylpropyl)-1H-benzimidazole-2-carboxamide dihydrochloride], the inhibition at 0.1 µM in test [1] was 96%. Also, the inhibition at 1 mg/kg in test [2] amounted to 90%.

For `CCC(O)[C@H]1CNC[C@@H](N(CC(C)C)C(=O)c2nc3ccccc3n2CCCCOC)C1` (stereo partly drawn) [Example 76, N-[(3S, 5R)-5-(1-hydroxypropyl)piperidin-3-yl]-1-(4-methoxybutyl)-N-(2-methylpropyl)-1H-benzimidazole-2-carboxamide dihydrochloride], in test [2], the inhibition at 1 mg/kg was determined as 79%.

With `COCCCn1c(C(=O)N(CC(C)C)[C@@H]2CNC[C@H](C(=O)N3CCOCC3)C2)nc2ccccc21` [Example 85, 1-(3-methoxypropyl)-N-(2-methylpropyl)-N-[(3S, 5R)-5-(morpholin-4-ylcarbonyl)piperidin-3-yl]-1H-benzimidazole-2-carboxamide 1/2 sulfate], the inhibition at 0.1 µM in test [1] is 97%.

With `CC(C)CN(C(=O)c1nc2ccccn2c1COc1ccccc1)[C@@H]1CNC[C@H](C(=O)N2CCOCC2)C1` [Example 117, N-(2-methylpropyl)-N-[(3S, 5R)-5-(morpholin-4-ylcarbonyl)piperidin-3-yl]-3-(phenoxymethyl)imidazo[1,2-a]pyridine-2-carboxamide dihydrochloride], the inhibition at 0.1 µM in test [1] came to 98%.

Regarding `COCCCCn1c(C(=O)N(CC2CC2)[C@@H]2CNC[C@H](C(=O)N3CCOCC3)C2)nc2ccccc21` [Example 253, N-(cyclopropylmethyl)-1-(4-methoxybutyl)-N-[(3S,5R)-5-(morpholin-4-ylcarbonyl)piperidin-3-yl]-1H-benzimidazole-2-carboxamide dihydrochloride], the inhibition at 1 mg/kg in test [2] is 77%.

Regarding `CCCN(C(=O)c1nc2ccccc2n1CCCCOC)[C@@H]1CNC[C@H](C(=O)N2CCOCC2)C1` [Example 255, 1-(4-methoxybutyl)-N-[(3S,5R)-5-(morpholin-4-ylcarbonyl)piperidin-3-yl]-N-propyl-1H-benzimidazole-2-carboxamide dihydrochloride], in test [2], the inhibition at 1 mg/kg came to 84%.
